Patent US12358902B2, “5-(2,5-bis(4-chloro-2-isopropylphenyl)thiophen-3-yl)-1H-tetrazole for the topical treatment of bacterial infections” (DENOVAMED INC., priority 2017, dated 2025)
Values after ≈ are worked out from the molar mass of the structure shown.

How the values were obtained:
MRSA (ATCC #33591) = experiment: rabbit ischemic wound model; assay type: in vivo, New Zealand white rabbits; conditions: topical daily to day 14; p<0.001 vs control, p<0.03 vs mupirocin
Experimental: 5-(2,5-bis(4-chloro-2-isopropylphenyl)thiophen-3-yl)-1H-tetrazole was tested for its efficacy against infection in the rabbit ischemic wound model, the gold standard animal model mimicking human DUI. In this model, the ear is made ischemic by division of central and rostral nutrient arteries of New Zealand white rabbits. New Zealand White rabbits were employed for this study and their husbandry and experimental manipulation adhered to standard Guides for the Care and Use of Laboratory Animals (2001). An incision was made to the level of bare cartilage at the base of the ear and followed by injection intradermally with epinephrine to obtain vasoconstriction and aid with skin detachment. Skin is separated from the underlying perichondrium and removed with a 6.0 mm aortic biopsy punch. Food and water were given ad libidum and animals were acclimatized for 7 days with photoperiods of alternating 12 h light and dark provided, along with analgesic (BUPRENEX™ (buprenorphine) 0.02 mg/kg sc) and anaesthesia (isoflurane (0.5-5% with oxygen carrier 0.5-2 L/min) during procedures.
An ischemia wound healing model was conducted surgically. Each wound was inoculated with 50 μl of 2×10^7 CFU/ml MRSA (ATCC #33591) and dressed. After one day, wounds were treated with either 50 μl control cream containing vehicle (N=4), 50 μl containing mupirocin (N=4), or 50 μl cream containing 5-(2,5-bis(4-chloro-2-isopropylphenyl)thiophen-3-yl)-1H-tetrazole (N=8) daily. Clinical observations were performed on days 1, 3, 5, 7, 10 and 14. Wounds were assessed and observations recorded using the Draize scoring system. Digital photographs of each wound were obtained and documented.
On day 14 post-wounding, under anesthesia, the animals were euthanized with an intravenous injection of BEUTHANASIA-D™ ([…] and phenytoin sodium) at a dosage of 150 mg/kg of body weight. Specimens including the entire wound, along with approximately 2-3 mm of the normal unwounded skin margins were harvested. Each ear wound specimen was sectioned into halves. For one half of the wound, the wound was placed into a container with 10% neutral buffered formalin and processed for routine histological evaluation. Wound organization was scored for four parameters on a scale of 0-4 at the wound site for inflammation, granulation, angiogenesis, and epithelialization. Wounds were characterized in a blinded manner by a board certified member of the College of American Pathologists. The other half of the wound was weighed (mg) in a sterile Petri dish, then placed in a sterile disposable tissue grinder and homogenized for quantitative microbiology. The tube containing the ground tissue sample was filled with 5 ml 0.85% sterile saline. Five 1:10 serial dilutions were then prepared with 0.5 ml aliquots and 4.5 ml of sterile saline per aliquot. Subsequently, 0.1 ml of the homogenate and each dilution was drop plated on trypticase soy agar and placed in an incubator at 37° C. The number of viable organisms per wound was recorded as cfu/gram of tissue.

Clostridium spp. = experiment: activity against Clostridium spp.; assay type: cell-based
[1] = test system: S. aureus MRSA MISA MU50 NRS1; experiment: broth microdilution MIC (CLSI); assay type: cell-based; conditions: Staphylococcus aureus, read-out: Antibacterial activity (MIC)
Experimental: (§1) Using a broth microdilution assay according to Clinical Laboratory Standards Institute (CSLI) guidelines, we tested 5-(2,5-bis(4-chloro-2-isopropylphenyl)thiophen-3-yl)-1H-tetrazole (“Test Article” in below table) to establish MICs against a broad range of MDR bacteria and noted substantive activity versus methicillin-resistant Staphylococcus aureus (MRSA), vancomycin-resistant Enterococcus (VRE) and Streptococcus spp. Antimicrobial susceptibility testing was performed by a microdilution broth assay according to CLSI guidelines. The inoculum was prepared from stationary-phase cultures diluted in water. Microtiter plate wells received aliquots of 100 μL of the compound diluted in Mueller-Hinton II cation adjusted media. The final concentration of compound typically ranged from 250 to 0.125 μg/ml in serial two-fold dilutions. In addition to the test compound, growth and sterility controls were included, along with DMSO vehicle control rows. The microtiter plates were inoculated with 5×10^5 bacteria and incubated overnight at 35° C. in a humidified atmosphere.

[2] = test system: S. aureus MRSA USA100 epidemic strain; experiment: broth microdilution MIC (CLSI); assay type: cell-based; conditions: Staphylococcus aureus, read-out: Antibacterial activity (MIC)
Experimental: as §1

[3] = test system: S. aureus MRSA clinical isolate multi resistant; experiment: broth microdilution MIC (CLSI); assay type: cell-based; conditions: Staphylococcus aureus, MRSA, read-out: Antibacterial activity (MIC)
Experimental: as §1

S. aureus MRSA ATCC43300 = experiment: broth microdilution MIC (CLSI); assay type: cell-based; conditions: Staphylococcus aureus, read-out: Antibacterial activity (MIC)
Experimental: as §1

[4] = test system: S. aureus MRSA clinical isolate penicillin and erythromycin resistant; experiment: broth microdilution MIC (CLSI); assay type: cell-based; conditions: Staphylococcus aureus, MRSA, read-out: Antibacterial activity (MIC)
Experimental: as §1

[5] = test system: S. aureus MRSA clinical isolate ciprofloxacin resistant; experiment: broth microdilution MIC (CLSI); assay type: cell-based; conditions: Staphylococcus aureus, MRSA, read-out: Antibacterial activity (MIC)
Experimental: as §1

[6] = test system: S. aureus MRSA clinical isolate from Manchester; experiment: broth microdilution MIC (CLSI); assay type: cell-based; conditions: Staphylococcus aureus, MRSA, read-out: Antibacterial activity (MIC)
Experimental: as §1

[7] = test system: S. aureus MRSA USA200 epidemic strain; experiment: broth microdilution MIC (CLSI); assay type: cell-based; conditions: Staphylococcus aureus, read-out: Antibacterial activity (MIC)
Experimental: as §1

[8] = test system: S. aureus MRSA USA300 epidemic strain; experiment: broth microdilution MIC (CLSI); assay type: cell-based; conditions: Staphylococcus aureus, read-out: Antibacterial activity (MIC)
Experimental: as §1

[9] = test system: S. aureus MRSA MISA MU3 NRS2; experiment: broth microdilution MIC (CLSI); assay type: cell-based; conditions: Staphylococcus aureus, read-out: Antibacterial activity (MIC)
Experimental: as §1

For C/C(=C\C(=O)OCCCCCCCCC(=O)O)C[C@@H]1OC[C@H](C[C@@H]2O[C@H]2[C@@H](C)[C@H](C)O)[C@@H](O)[C@H]1O [mupirocin, reference compound], the “percent wound contraction over time (FIG. 1)” value (MRSA (ATCC #33591)) was “control group had less wound contraction than either treated group”.

In the case of CC(C)c1cc(Cl)ccc1-c1cc(-c2nnn[nH]2)sc1-c1ccc(Cl)cc1C(C)C [5-(4,5-bis(4-chloro-2-isopropylphenyl)thiophen-2-yl)-1H-tetrazole, reference compound], the activity (Clostridium spp.) is reported as “inactive”.

In the case of CN[C@H](CC(C)C)C(=O)N[C@H]1C(=O)N[C@@H](CC(N)=O)C(=O)N[C@H]2C(=O)N[C@H]3C(=O)N[C@H](C(=O)N[C@H](C(=O)O)c4cc(O)cc(O)c4-c4cc3ccc4O)[C@H](O)c3ccc(c(Cl)c3)Oc3cc2cc(c3O[C@@H]2O[C@H](CO)[C@@H](O)[C@H](O)[C@H]2O[C@H]2C[C@](C)(N)[C@H](O)[C@H](C)O2)Oc2ccc(cc2Cl)[C@H]1O [vancomycin, reference compound], the MIC [1] is reported as 4 µg/mL (≈ 2.76 µM), the MIC [2] is reported as 1 µg/mL (≈ 0.69 µM) and the MIC [3] is reported as 0.5 µg/mL (≈ 0.345 µM). The MIC (S. aureus MRSA ATCC43300) was 0.5 µg/mL (≈ 0.345 µM), the MIC [4] was 1 µg/mL (≈ 0.69 µM) and the MIC [5] was 0.5 µg/mL (≈ 0.345 µM). The MIC [6] was 0.5 µg/mL (≈ 0.345 µM), the MIC [7] was 0.5 µg/mL (≈ 0.345 µM) and the MIC [8] was 1 µg/mL (≈ 0.69 µM). For the same compound, the MIC [9] was 1 µg/mL (≈ 0.69 µM).
